The text below walks through data of patent US11130960B2, “Methods for conferring or enhancing herbicide resistance on plants and/or alga with protoporphyrinogen oxidase variants” (FARM HANNONG CO., LTD., priority 2014, dated 2021).

Test in all cases: Seed germination / growth on ½ MS medium containing herbicide
Assay [1] relates to wild-type Arabidopsis thaliana (Col-0). Format: in vivo. Particulars: ½ MS medium with 70 nM Tiafenacil, 50 uM glufosinate, or 70 nM Tiafenacil and 50 uM glufosinate. The method, then:
(§1) To examine tiafenacil resistance of T2 generation seeds which survived under treatment of 1 μM tiafenacil, among the CyPPO2 and CyPPO8 transformants, Arabidopsis thaliana seeds were sown in ½ MS medium (1.125 g/L of MS salt, 10 g/L of sucrose, 7 g/L of Agar) containing 70 nM tiafenacil. […] Therefore, survival under 70 nM tiafenacil means that a plant has resistance against tiafenacil.
(§2) In Arabidopsis thaliana transformant including CyPPO2 or CyPPO8 gene, which was obtained by transformation using the plant transformation vector prepared in Example 6, the PPO activity-inhibiting herbicide-resistant gene and glufosinate-resistant gene are expressed at the same time. Therefore, it was examined whether cross-treatment of Arabidopsis thaliana transformant with two herbicides, namely, PPO activity-inhibiting herbicide and glufosinate is effective for weed control. To this end, seeds of CyPPO2 and BAR gene-inserted Arabidopsis thaliana transformant, or CyPPO8 and BAR gene-inserted Arabidopsis thaliana transformant were sterilized and treated at low temperature of 4° C. for 2 days. The seeds were sown in a ½ MS medium (Duchefa), a ½MS medium containing 70 nM Tiafenacil, a ½MS medium containing 50 uM glufosinate, or a ½MS medium containing 70 nM Tiafenacil and 50 uM glufosinate, and grown at 23° C. under 16 hour-light/8 hour-dark conditions for 7-14 days. Arabidopsis thaliana on the herbicide media was CyPPO2 or CyPPO8-transformed seed and the wild-type Col0 as a control, respectively. The transformant and the control were cultured on herbicide media. After 2 weeks, they were examined.
(§3) In Example 9, it was confirmed that Arabidopsis thaliana transformant prepared in the present invention has resistance against the two PPO-based herbicides, Tiafenacil and Saflufenacil at the same time, and therefore, it was tested whether the cross-treatment of Arabidopsis thaliana transformant with Tiafenacil and Saflufenacil is effective for weed control. To this end, seeds of CyPPO2 or CyPPO8 gene-inserted Arabidopsis thaliana transformant were sterilized and treated at low temperature of 4° C. for 2 days. The seeds were sown in a ½ MS medium, a ½MS medium containing 70 nM Tiafenacil, a ½MS medium containing 70 nM Saflufenacil, or a ½MS medium containing 35 nM Tiafenacil and 35 nM Saflufenacil, and grown at 23° C. under 16 hour-light/8 hour-dark conditions for 7-14 days. Arabidopsis thaliana on the herbicide media was CyPPO2 or CyPPO8-transformed seed and the wild-type Col0 as a control, respectively. The transformant and the control were cultured on herbicide media. After 2 weeks, they were examined.

For another assay, the system named is CyPPO2 transformants. Format: in vivo, Arabidopsis thaliana. Particulars: CyPPO2 and BAR gene-inserted; ½ MS medium with 70 nM Tiafenacil, 50 uM glufosinate, or both. The method, then: as §1, §2, §3
In another assay the test system is CyPPO8 transformants. Format: in vivo, Arabidopsis thaliana. Particulars: CyPPO8 and BAR gene-inserted; ½ MS medium with 70 nM Tiafenacil, 50 uM glufosinate, or both. As to the method: as §1, §2, §3

Turning to `CP(=O)(O)CCC(N)C(=O)O` (stereo not drawn) [glufosinate], the “germination / growth on herbicide medium after 2 weeks” value is “not germinated” in assay [1], “normally grew” with CyPPO2 transformants and “normally grew” in the assay on CyPPO8 transformants.
